Reference: ChEMBL document CHEMBL1649434, “Regulation of mprF in daptomycin-nonsusceptible Staphylococcus aureus strains” (2009)
≈ marks a conversion by molar mass, not a printed value.

Key:
Staphylococcus aureus [1] = test: Antimicrobial activity against Staphylococcus aureus isolate 701 harboring mprF C884A mutant gene by Etest; format: functional
Staphylococcus aureus [2] = test: Antimicrobial activity against Staphylococcus aureus isolate 703 harboring mprF C884A mutant gene by Etest; format: functional
Staphylococcus aureus [3] = test: microbe, parasite or virus in culture; details: isolate 616
Description: Antimicrobial activity against Staphylococcus aureus isolate 616 by Etest

Staphylococcus aureus [4] = test: Antimicrobial activity against Staphylococcus aureus isolate 629 by Etest; format: functional

For `CCCCCCCCCC(=O)N[C@@H](Cc1c[nH]c2ccccc12)C(=O)N[C@H](CC(N)=O)C(=O)N[C@@H](CC(=O)O)C(=O)N[C@@H]1C(=O)NCC(=O)N[C@@H](CCCN)C(=O)N[C@@H](CC(=O)O)C(=O)N[C@H](C)C(=O)N[C@@H](CC(=O)O)C(=O)NCC(=O)N[C@H](CO)C(=O)N[C@@H]([C@H](C)CC(=O)O)C(=O)N[C@@H](CC(=O)c2ccccc2N)C(=O)O[C@@H]1C`, the MIC (Staphylococcus aureus [1]) was 2 µg/mL (≈ 1.23 µM), the MIC (Staphylococcus aureus [2]) was 2 µg/mL (≈ 1.23 µM) and the MIC (Staphylococcus aureus [3]) was 0.5 µg/mL (≈ 0.309 µM). It also gave an MIC (Staphylococcus aureus [4]) of 0.75 µg/mL (≈ 0.463 µM).
